Measurements published in BigSolDB 2.1.

Cc1ncc([N+](=O)[O-])n1CCO
solubility (mole fraction)
Conditions | 298.15 K | 303.15 K | 308.15 K | 313.15 K | 318.15 K | 323.15 K | 328.15 K | 333.15 K
in transcutol | 0.0207 | 0.0227 | 0.0244 | 0.0263 | 0.0283 | 0.0303 | 0.033 | 0.0361
in water | 0.00111 | 0.00119 | 0.00128 | 0.00137 | 0.00147 | 0.00159 | 0.0017 | 0.00182
